Common to all, as to assay: X-ray crystal structure, […] Å
Common to all, as to format: binding

The target in assay [1] is T1, WlaRD (C8J_1081) (Campylobacter jejuni, UniProt Q9ALS6). The settings on record: complex with N^5-formyl-THF.
The target in assay [2] is T1, WlaRD (C8J_1081).
Assay [3] addresses T1, WlaRD (C8J_1081). The source holds these as a separate data set.

Turning to `Cc1cn([C@H]2C[C@H](O)[C@@H](COP(=O)(O)OP(=O)(O)O[C@H]3O[C@H](C)[C@H](O)[C@H](NC=O)[C@H]3O)O2)c(=O)[nH]c1=O` [dTDP-Fuc3NFo], the “X-ray crystal structure, 1.45 Å (cocrystal)” value at WlaRD (C8J_1081) [1] is “to form such a complex in the presence of dTDP-Fuc3NFo as shown”.

For the compound `Nc1nc2c(c(=O)[nH]1)N[C@@H](CNc1ccc(C(=O)N[C@@H](CCC(=O)O)C(=O)O)cc1)CN2` [THF], the “X-ray crystal structure, 1.9 Å (soak, turnover in crystal)” value on WlaRD (C8J_1081) [2] (complex with dTDP-Qui3N (subunit A) or dTDP-Qui3NFo (subunit B)) is “In subunit A, THF and dTDP-Qui3N were observed”.

`Cc1cn([C@H]2C[C@H](O)[C@@H](COP(=O)(O)OP(=O)(O)O)O2)c(=O)[nH]c1=O` [dTDP]: the “X-ray crystal structure, 1.4 Å (cocrystal)” value on WlaRD (C8J_1081) [3] (complex with N^5-formyl-THF, also with N^10-formyl-THF) is “that of the enzyme complexed with N^5-formyl-THF and dTDP”.

Consider `Nc1nc2c(c(=O)[nH]1)N(C=O)[C@@H](CNc1ccc(C(=O)N[C@@H](CCC(=O)O)C(=O)O)cc1)CN2` [N^5-formyl-THF], for which the “X-ray crystal structure, 1.4 Å (cocrystal)” value on WlaRD (C8J_1081) [3] (complex with dTDP, not catalytically competent cofactor analog) was “that of the enzyme complexed with N^5-formyl-THF and dTDP”.

Regarding `Cc1cn([C@H]2C[C@H](O)[C@@H](COP(=O)(O)OP(=O)(O)O[C@H]3O[C@H](C)[C@@H](O)[C@H](NC=O)[C@H]3O)O2)c(=O)[nH]c1=O` [dTDP-Qui3NFo], the “X-ray crystal structure, 1.9 Å (soak, turnover in crystal)” value on WlaRD (C8J_1081) [2] (complex with THF, subunit B) was “In subunit B, however, the products THF and dTDP-Qui3NFo were present”.

The record behind these values is PMC3915720 (Biochemistry, 2013).
